# Experimental data as given in ChEMBL document CHEMBL1140148, “Structure-activity studies on a series of a 2-aminopyrimidine-containing histamine H4 receptor ligands” (J Med Chem, 2008).
# Activity calls are given as the source filed them. No cut-off for these calls is given here.
# Experiments:
# [1] = molecular target: Histamine H4 receptor (Rattus norvegicus) (UniProt Q91ZY1); test: Agonist activity at rat histamine H4 receptor expressed in HEK293 cells coexpressing Gqi5 protein assessed as calcium flux by FLIPR assay relative to histamine; format: functional, cell-based
# Sequence of Histamine H4 receptor (Rattus norvegicus) (Q91ZY1 whole entry): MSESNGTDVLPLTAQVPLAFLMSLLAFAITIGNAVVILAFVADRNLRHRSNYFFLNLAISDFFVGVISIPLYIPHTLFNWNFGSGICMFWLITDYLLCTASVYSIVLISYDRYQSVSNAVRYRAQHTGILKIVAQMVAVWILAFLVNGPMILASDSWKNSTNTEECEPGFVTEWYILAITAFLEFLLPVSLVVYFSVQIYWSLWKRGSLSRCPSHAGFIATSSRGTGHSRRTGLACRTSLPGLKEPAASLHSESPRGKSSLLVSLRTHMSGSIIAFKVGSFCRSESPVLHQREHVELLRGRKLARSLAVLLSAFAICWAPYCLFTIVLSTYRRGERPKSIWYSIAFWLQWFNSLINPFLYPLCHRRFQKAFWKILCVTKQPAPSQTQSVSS
# Histamine H4 receptor [2] = molecular target: T1, Histamine H4 receptor (Homo sapiens, UniProt Q9H3N8); test: Agonist activity at human histamine H4 receptor expressed in HEK293 cells coexpressing Gqi5 protein assessed as calcium flux by FLIPR assay; format: functional, cell-based
# T1 sequence (Q9H3N8 whole entry): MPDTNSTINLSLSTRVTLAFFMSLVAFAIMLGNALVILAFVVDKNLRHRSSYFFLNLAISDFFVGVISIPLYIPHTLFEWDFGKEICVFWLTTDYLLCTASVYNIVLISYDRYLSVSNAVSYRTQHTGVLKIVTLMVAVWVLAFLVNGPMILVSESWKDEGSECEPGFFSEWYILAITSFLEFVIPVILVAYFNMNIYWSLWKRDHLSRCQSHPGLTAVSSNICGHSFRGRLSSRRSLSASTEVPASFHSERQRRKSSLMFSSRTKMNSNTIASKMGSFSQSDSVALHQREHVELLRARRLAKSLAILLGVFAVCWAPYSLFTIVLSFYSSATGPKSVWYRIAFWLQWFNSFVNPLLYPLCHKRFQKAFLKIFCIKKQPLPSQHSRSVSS
# Histamine H4 receptor [3] = molecular target: T1, Histamine H4 receptor; test: Agonist activity at human histamine H4 receptor expressed in HEK293 cells coexpressing Gqi5 protein assessed as calcium flux by FLIPR assay relative to histamine; format: functional, cell-based
# Histamine H4 receptor [4] = molecular target: T2, Histamine H4 receptor (Rattus norvegicus, UniProt Q91ZY1); test: (§1) Agonist activity at rat histamine H4 receptor expressed in HEK293 cells coexpressing Gqi5 protein assessed as calcium flux by FLIPR assay; format: functional, cell-based
# T2 sequence (Q91ZY1 whole entry): as the sequence (Q91ZY1 whole entry) above
# Histamine H4 receptor [5] = molecular target: Histamine H4 receptor (Mus musculus, UniProt Q91ZY2); test: Agonist activity at mouse histamine H4 receptor expressed in HEK293 cells coexpressing Gqi5 protein assessed as calcium flux by FLIPR assay; format: functional, cell-based
# Sequence of Histamine H4 receptor (Mus musculus, UniProt Q91ZY2) (Q91ZY2 whole entry): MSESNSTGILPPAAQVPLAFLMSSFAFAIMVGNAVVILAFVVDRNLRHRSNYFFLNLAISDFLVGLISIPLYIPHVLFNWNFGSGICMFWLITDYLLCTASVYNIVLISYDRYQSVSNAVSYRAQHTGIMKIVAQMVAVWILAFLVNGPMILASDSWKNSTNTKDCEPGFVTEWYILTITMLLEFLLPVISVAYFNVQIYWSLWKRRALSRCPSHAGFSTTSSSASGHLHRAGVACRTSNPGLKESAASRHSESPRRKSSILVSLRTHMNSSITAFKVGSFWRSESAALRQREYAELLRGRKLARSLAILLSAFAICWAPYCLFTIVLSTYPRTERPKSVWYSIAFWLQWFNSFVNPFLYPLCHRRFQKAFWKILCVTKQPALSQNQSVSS
# [6] = Tmax in mouse at 2.5 mg/kg, po; format: ADME, organism-based; set-up: dose 2.5 mg/kg, route oral; settings: in vivo
# [7] = Binding affinity to NMDA receptor
# [8] = Binding affinity to opioid receptor
# Histamine H3 receptor [9] = molecular target: Histamine H3 receptor (Rattus norvegicus, UniProt Q9QYN8); test: Binding affinity to rat histamine H3 receptor
# [10] = Binding affinity to cyclooxygenase
# [11] = Plasma clearance in mouse at 2.5 mg/kg, iv; format: ADME, organism-based; set-up: dose 2.5 mg/kg, route intravenous
# [12] = molecular target: Histamine H4 receptor (Mus musculus) (UniProt Q91ZY2); test: Agonist activity at mouse histamine H4 receptor expressed in HEK293 cells coexpressing Gqi5 protein assessed as calcium flux by FLIPR assay relative to histamine; format: functional, cell-based
# Sequence of Histamine H4 receptor (Mus musculus) (Q91ZY2 whole entry): as above
# [13] = Binding affinity to T-type voltage gated calcium channel
# [14] = Terminal volume of distribution in rat at 1 mg/kg, iv; format: ADME, organism-based; set-up: dose 1 mg/kg, route intravenous; settings: in vivo, read-out: Vbeta
# [15] = molecular target: 5-hydroxytryptamine receptor 2C (Homo sapiens, UniProt P28335); test: Binding affinity to 5HT2C receptor
# Histamine H4 receptor [16] = molecular target: T2, Histamine H4 receptor; test: Agonist activity at rat histamine H4 receptor expressed in HEK293 cells coexpressing Gqi5 protein by GTPgammaS assay; format: functional, cell-based
# Cannabinoid receptor 1 = Cannabinoid receptor 1 (Homo sapiens, UniProt P21554); test: Binding affinity to cannabinoid receptor
# Sequence of Cannabinoid receptor 1 (P21554 whole entry): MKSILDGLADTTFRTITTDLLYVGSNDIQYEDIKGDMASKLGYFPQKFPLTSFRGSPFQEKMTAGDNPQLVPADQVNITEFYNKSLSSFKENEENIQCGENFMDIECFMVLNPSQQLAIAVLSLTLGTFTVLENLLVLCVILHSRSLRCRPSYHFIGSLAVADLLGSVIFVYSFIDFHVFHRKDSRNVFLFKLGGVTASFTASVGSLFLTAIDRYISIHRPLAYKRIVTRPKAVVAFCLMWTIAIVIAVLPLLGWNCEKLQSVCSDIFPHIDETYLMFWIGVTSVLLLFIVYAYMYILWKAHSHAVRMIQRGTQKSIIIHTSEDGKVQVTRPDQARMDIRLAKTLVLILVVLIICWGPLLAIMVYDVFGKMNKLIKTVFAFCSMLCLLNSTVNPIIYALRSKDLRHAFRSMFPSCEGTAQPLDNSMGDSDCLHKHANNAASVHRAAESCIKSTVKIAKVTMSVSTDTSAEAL
# [17] = molecular target: Alpha-2A adrenergic receptor (Homo sapiens, UniProt P08913); test: Binding affinity to adrenergic alpha2A receptor
# Rattus norvegicus [18] = test: Toxicity in rat assessed as effect on locomotor activity by rotarod test upto 300 umol/kg; format: organism-based; settings: in vivo
# [19] = molecular target: 5-hydroxytryptamine receptor 1A (Homo sapiens) (UniProt P08908); test: Agonist activity at 5HT1A receptor expressed in CHO cells by GTPgammaS binding assay relative to serotonin; format: functional, cell-based
# Sequence of 5-hydroxytryptamine receptor 1A (Homo sapiens) (P08908 whole entry): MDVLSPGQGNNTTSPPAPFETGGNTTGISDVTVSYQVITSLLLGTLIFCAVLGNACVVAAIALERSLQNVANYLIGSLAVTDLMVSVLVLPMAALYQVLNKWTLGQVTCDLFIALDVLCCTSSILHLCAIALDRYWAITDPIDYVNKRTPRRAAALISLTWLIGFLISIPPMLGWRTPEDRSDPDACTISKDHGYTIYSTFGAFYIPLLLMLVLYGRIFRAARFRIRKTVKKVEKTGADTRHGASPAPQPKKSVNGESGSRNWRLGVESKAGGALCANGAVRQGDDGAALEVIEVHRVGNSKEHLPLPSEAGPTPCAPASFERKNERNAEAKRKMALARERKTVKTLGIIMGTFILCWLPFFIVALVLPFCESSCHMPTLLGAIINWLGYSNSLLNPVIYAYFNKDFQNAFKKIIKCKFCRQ
# [20] = Half life in mouse at 2.5 mg/kg, po; format: ADME, organism-based; set-up: dose 2.5 mg/kg, route oral; settings: in vivo
# [21] = Plasma concentration in rat at 30 umol/kg, ip after 30 mins; format: ADME, organism-based
# P2X purinoceptor 7 [22] = molecular target: P2X purinoceptor 7 (Homo sapiens, UniProt Q99572); test: Binding affinity to human P2X7 channel
# [23] = molecular target: T3, 5-hydroxytryptamine receptor 7 (Homo sapiens, UniProt P34969); test: Inhibition of 5HT7 receptor at 10 umol
# T3 sequence (P34969 whole entry): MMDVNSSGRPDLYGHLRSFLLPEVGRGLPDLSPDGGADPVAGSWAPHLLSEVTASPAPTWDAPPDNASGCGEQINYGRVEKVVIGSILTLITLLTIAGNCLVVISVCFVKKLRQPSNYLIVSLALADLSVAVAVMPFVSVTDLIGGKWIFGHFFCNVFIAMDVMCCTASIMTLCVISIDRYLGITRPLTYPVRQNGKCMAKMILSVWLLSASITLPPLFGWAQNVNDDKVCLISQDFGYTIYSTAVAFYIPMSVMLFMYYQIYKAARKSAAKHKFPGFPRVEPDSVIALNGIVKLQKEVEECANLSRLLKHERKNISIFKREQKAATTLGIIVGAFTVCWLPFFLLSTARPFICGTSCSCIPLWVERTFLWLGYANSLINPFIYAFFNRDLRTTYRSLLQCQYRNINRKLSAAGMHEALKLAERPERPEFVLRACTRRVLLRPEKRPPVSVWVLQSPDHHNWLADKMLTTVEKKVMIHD
# Histamine H3 receptor [24] = molecular target: Histamine H3 receptor (Homo sapiens, UniProt Q9Y5N1); test: Binding affinity to human histamine H3 receptor
# Sequence of Histamine H3 receptor (Homo sapiens, UniProt Q9Y5N1) (Q9Y5N1 whole entry): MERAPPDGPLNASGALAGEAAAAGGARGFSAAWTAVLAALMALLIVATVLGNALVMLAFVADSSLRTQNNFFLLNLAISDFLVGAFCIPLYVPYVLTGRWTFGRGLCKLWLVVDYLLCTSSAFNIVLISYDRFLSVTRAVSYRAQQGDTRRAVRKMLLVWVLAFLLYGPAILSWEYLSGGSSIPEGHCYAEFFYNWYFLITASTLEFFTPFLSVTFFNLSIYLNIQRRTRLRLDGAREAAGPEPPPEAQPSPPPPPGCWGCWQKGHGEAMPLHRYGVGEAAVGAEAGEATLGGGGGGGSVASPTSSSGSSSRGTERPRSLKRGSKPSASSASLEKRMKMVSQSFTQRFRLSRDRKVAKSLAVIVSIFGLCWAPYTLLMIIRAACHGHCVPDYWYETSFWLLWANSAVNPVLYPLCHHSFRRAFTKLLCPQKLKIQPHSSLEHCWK
# [25] = Cmax in mouse at 2.5 mg/kg, po; format: ADME, organism-based; set-up: dose 2.5 mg/kg, route oral; settings: in vivo
# [26] = molecular target: T3, 5-hydroxytryptamine receptor 7; test: Binding affinity to 5HT7 receptor
# [27] = Cmax in rat at 1 mg/kg, iv; format: ADME, organism-based; set-up: dose 1 mg/kg, route intravenous; settings: in vivo
# [28] = Drug level in rat brain at 30 umol/kg, ip after 30 mins; format: ADME, organism-based; settings: read-out: Drug uptake
# [29] = Binding affinity to neuronal nicotine receptor
# Mus musculus [30] = test: Antiinflammatory activity in ip dosed CD1/ICR mouse assessed as reduction of clobenpropit-induced itching at 0.1 to 10 umol administered into scruff of neck; format: functional, organism-based
# P2X purinoceptor 7 [31] = molecular target: P2X purinoceptor 7 (Mus musculus, UniProt Q9Z1M0); test: Binding affinity to mouse P2X7 channel
# Sequence of P2X purinoceptor 7 (Mus musculus, UniProt Q9Z1M0) (Q9Z1M0 whole entry): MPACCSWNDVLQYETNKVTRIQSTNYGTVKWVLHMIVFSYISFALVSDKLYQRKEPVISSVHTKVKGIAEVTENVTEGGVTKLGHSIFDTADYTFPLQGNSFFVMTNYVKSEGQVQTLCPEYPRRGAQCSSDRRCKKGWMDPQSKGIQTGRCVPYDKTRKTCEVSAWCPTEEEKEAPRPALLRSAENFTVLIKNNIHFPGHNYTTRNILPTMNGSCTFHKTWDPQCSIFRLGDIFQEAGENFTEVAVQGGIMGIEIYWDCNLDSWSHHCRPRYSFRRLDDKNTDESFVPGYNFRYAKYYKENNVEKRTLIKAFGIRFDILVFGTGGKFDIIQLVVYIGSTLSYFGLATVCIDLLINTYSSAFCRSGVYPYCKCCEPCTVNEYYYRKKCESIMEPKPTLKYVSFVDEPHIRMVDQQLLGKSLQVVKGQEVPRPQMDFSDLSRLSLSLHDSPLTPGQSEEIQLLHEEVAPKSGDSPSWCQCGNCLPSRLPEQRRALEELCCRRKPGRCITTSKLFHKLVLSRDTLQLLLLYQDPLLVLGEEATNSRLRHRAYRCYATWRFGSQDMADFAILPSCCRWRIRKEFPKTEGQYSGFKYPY
# [32] = molecular target: 5-hydroxytryptamine receptor 1A (Homo sapiens) (UniProt P08908); test: Inhibition of 5HT1A receptor at 10 umol
# Rattus norvegicus [33] = test: Antiinflammatory activity against carrageenan-induced thermal hyperalgesia in rat assessed as increase in paw withdrawal at 30 umol/kg, ip relative to control; format: functional
# [34] = molecular target: T4, 5-hydroxytryptamine receptor 1A (Homo sapiens, UniProt P08908); test: Agonist activity at 5HT1A receptor expressed in CHO cells by GTPgammaS binding assay; format: functional, cell-based
# T4 sequence (P08908 whole entry): as the sequence (P08908 whole entry) above
# Histamine H4 receptor [35] = molecular target: T2, Histamine H4 receptor; test: Displacement of [3H]histamine from rat histamine H4 receptor expressed in HEK293 cells; format: cell-based
# [36] = molecular target: Alpha-2C adrenergic receptor (Homo sapiens, UniProt P18825); test: Binding affinity to adrenergic Alpha-2C receptor
# [37] = Inhibition of histamine-induced shape change in BALB/c mouse BMMC by gated autofluorescence forward scatter; format: functional
# [38] = molecular target: T5, 5-hydroxytryptamine receptor 2A (Homo sapiens, UniProt P28223); test: Binding affinity to 5HT2A receptor
# T5 sequence (P28223 whole entry): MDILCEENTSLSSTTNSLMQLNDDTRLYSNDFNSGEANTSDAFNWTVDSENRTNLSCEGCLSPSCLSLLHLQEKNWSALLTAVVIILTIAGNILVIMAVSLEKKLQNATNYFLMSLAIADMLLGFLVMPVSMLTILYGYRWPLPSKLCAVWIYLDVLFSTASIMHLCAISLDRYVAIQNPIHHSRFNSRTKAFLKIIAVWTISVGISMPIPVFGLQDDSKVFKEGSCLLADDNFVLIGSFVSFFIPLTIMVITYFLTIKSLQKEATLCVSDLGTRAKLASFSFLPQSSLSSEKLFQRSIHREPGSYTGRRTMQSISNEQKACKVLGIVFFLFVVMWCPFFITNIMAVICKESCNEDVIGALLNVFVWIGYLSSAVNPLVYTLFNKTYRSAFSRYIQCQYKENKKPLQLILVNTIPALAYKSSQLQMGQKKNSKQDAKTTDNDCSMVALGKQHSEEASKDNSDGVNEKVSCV
# [39] = Tmax in rat at 1 mg/kg, po; format: ADME, organism-based; set-up: dose 1 mg/kg, route oral; settings: in vivo
# [40] = Bioavailability in rat at 1 mg/kg, po; format: ADME, organism-based; settings: in vivo
# Mus musculus [41] = test: Antiinflammatory activity in zymosan-induced peritonitis in sc dosed BALB/c mouse model assessed as decrease in myeloperoxidase activity in peritoneal lavage; format: functional
# Rattus norvegicus [42] = test: Plasma concentration in rat at 100 umol/kg, ip; format: ADME, organism-based; settings: in vivo
# Rattus norvegicus [43] = species on record: Rattus norvegicus; test: Antiinflammatory activity against carrageenan-induced hyperalgesia in rat assessed as increase in paw withdrawal by measuring plasma free fraction potency; format: functional, organism-based
# [44] = molecular target: T4, 5-hydroxytryptamine receptor 1A; test: Binding affinity to 5HT1A receptor
# [45] = Plasma clearance in rat at 1 mg/kg, iv; format: ADME, organism-based; set-up: dose 1 mg/kg, route intravenous
# [46] = molecular target: T5, 5-hydroxytryptamine receptor 2A; test: Inhibition of 5HT2A receptor at 10 umol
# [47] = Inhibition of adrenergic alpha2 receptor at 10 umol
# [48] = Cmax in mouse at 2.5 mg/kg, iv; format: ADME, organism-based; set-up: dose 2.5 mg/kg, route intravenous; settings: in vivo
# [49] = molecular target: 5-hydroxytryptamine receptor 1B (Homo sapiens) (UniProt P28222); test: Inhibition of 5HT1B receptor at 10 umol
# Sequence of 5-hydroxytryptamine receptor 1B (Homo sapiens) (P28222 whole entry): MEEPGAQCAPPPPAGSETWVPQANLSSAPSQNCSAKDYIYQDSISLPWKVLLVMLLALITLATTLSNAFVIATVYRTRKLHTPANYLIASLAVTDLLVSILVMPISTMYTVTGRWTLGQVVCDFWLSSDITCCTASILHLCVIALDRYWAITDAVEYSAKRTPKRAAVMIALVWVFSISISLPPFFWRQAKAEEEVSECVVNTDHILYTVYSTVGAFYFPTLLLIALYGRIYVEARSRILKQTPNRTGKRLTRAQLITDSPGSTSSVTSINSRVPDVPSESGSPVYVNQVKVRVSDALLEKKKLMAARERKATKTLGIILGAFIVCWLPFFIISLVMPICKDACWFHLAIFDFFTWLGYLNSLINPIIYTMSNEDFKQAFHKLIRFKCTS
# [50] = Terminal volume of distribution in mouse at 2.5 mg/kg, iv; format: ADME, organism-based; set-up: dose 2.5 mg/kg, route intravenous; settings: in vivo, read-out: Vbeta
# [51] = Plasma concentration in mouse at 25 umol/kg, ip after 30 mins; format: ADME, organism-based
# Rattus norvegicus [52] = test: Antiinflammatory activity against carrageenan-induced thermal hyperalgesia in ip dosed rat assessed as increase in paw withdrawal; format: functional
# [53] = Bioavailability in mouse at 2.5 mg/kg, po; format: ADME, organism-based; settings: in vivo
# Rattus norvegicus [54] = test: Antiinflammatory activity against carrageenan-induced thermal hyperalgesia in rat assessed as increase in paw withdrawal at 100 umol/kg, ip relative to control; format: functional
# Rattus norvegicus [55] = test: Plasma concentration in carrageenan-induced rat at 10 umol/kg, ip; format: ADME, organism-based; settings: in vivo
# [56] = molecular target: 5-hydroxytryptamine receptor 1D (Homo sapiens, UniProt P28221); test: Binding affinity to 5HT1D receptor
# Sequence of 5-hydroxytryptamine receptor 1D (P28221 whole entry): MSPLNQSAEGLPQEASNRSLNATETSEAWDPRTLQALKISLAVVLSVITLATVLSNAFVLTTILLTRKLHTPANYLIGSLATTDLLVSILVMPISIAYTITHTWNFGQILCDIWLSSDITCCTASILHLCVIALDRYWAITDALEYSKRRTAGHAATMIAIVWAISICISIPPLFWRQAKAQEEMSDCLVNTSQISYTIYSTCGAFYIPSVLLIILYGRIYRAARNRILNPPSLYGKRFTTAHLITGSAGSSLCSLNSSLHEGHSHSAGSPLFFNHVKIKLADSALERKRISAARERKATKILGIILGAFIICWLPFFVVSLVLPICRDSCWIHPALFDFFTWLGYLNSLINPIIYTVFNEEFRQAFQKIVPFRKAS
# Rattus norvegicus [57] = test: Plasma concentration in rat at 30 umol/kg, ip; format: ADME, organism-based; settings: in vivo
# Mus musculus [58] = test: Antiinflammatory activity in ip dosed CD1/ICR mouse assessed as reduction of clobenpropit-induced itching; format: functional
# [59] = Protein binding in ip dosed rat plasma; format: ADME, organism-based; settings: read-out: PPB (converted)
# [60] = Cmax in rat at 1 mg/kg, po; format: ADME, organism-based; set-up: dose 1 mg/kg, route oral; settings: in vivo
# Histamine H4 receptor [61] = molecular target: T1, Histamine H4 receptor; settings: HEK293
# [62] = molecular target: Histamine H4 receptor (Rattus norvegicus) (UniProt Q91ZY1); settings: HEK293
# [63] = molecular target: Histamine H4 receptor (Rattus norvegicus) (UniProt Q91ZY1); test: as §1; format: functional, cell-based
smiles,measurement,setting,value
CN1CCN(c2cc(C(C)(C)C)nc(Cl)n2)CC1,Efficacy,[1],75%
same,EC50,Histamine H4 receptor [2],4.9 µM
same,Efficacy,Histamine H4 receptor [3],42%
same,EC50,Histamine H4 receptor [4],8.71 µM
CN1CCN(c2cc(-c3ccc(C#N)cc3)nc(N)n2)CC1,EC50,Histamine H4 receptor [5],0.123 µM
same,Tmax,[6],15 min
same,IC50,[7],> 100 µM
same,IC50,[8],> 10 µM
same,Ki,Histamine H3 receptor [9],0.245 µM
same,IC50,[10],> 100 µM
same,clearance,[11],255 mL/min/kg
same,Efficacy,[12],54%
same,IC50,[13],> 10 µM
same,Vd,[14],7.1 L/kg
same,Ki,[15],3 µM
same,EC50,Histamine H4 receptor [16],4.68 µM
same,Ki,Cannabinoid receptor 1,> 10 µM
same,Ki,[17],0.074 µM
same,Activity,Rattus norvegicus [18],Non-toxic
same,Efficacy,[19],92%
same,half-life,[20],36 min
same,concentration at 0.5 h,[21],600 ng/mL
same,IC50,P2X purinoceptor 7 [22],> 100 µM
same,inhibition,[23],53%
same,Ki,Histamine H3 receptor [24],1.29 µM
same,Cmax,[25],92 ng/mL
same,Ki,[26],5.9 µM
same,Cmax,[27],160 ng/mL
same,concentration at 0.5 h,[28],12100 ng/g
same,Ki,[29],100 µM
same,Activity,Mus musculus [30],inactive
same,IC50,P2X purinoceptor 7 [31],> 100 µM
same,inhibition,[32],99%
same,Activity,Rattus norvegicus [33],36%
same,EC50,[34],1.62 µM
same,Ki,Histamine H4 receptor [35],0.275 µM
same,Ki,[36],0.29 µM
same,pKb,[37],6.56
same,Ki,[38],4.1 µM
same,Tmax,[39],24 min
same,EC50,Histamine H4 receptor [4],0.0589 µM
same,bioavailability,[40],31%
same,ED50,Mus musculus [41],64 µmol/kg
same,Cp,Rattus norvegicus [42],2468 ng/mL
same,EC50,Rattus norvegicus [43],0.2 µg/mL
same,Ki,[44],0.042 µM
same,clearance,[45],172 mL/min/kg
same,inhibition,[46],71%
same,inhibition,[47],92%
same,Cmax,[48],570 ng/mL
same,inhibition,[49],86%
same,Vd,[50],3.9 L/kg
same,concentration at 0.5 h,[51],1150 ng/mL
same,ED50,Rattus norvegicus [52],32 µmol/kg
same,bioavailability,[53],41%
same,Activity,Rattus norvegicus [54],100%
same,Cp,Rattus norvegicus [55],212 ng/mL
same,Ki,[56],0.12 µM
same,Cp,Rattus norvegicus [57],836 ng/mL
same,ED50,Mus musculus [58],34 µmol/kg
same,fraction unbound,[59],0.33
same,Cmax,[60],32 ng/mL
CN1CCN(c2ccnc(N)n2)CC1,Efficacy,[1],87%
same,EC50,Histamine H4 receptor [2],0.0437 µM
same,Efficacy,Histamine H4 receptor [3],42%
same,EC50,Histamine H4 receptor [4],0.115 µM
CN1CCN(c2cc(N)cc(-c3ccc(C#N)cc3)n2)CC1,pKb,Histamine H4 receptor [61],5.05
same,pKb,[62],5.14
CN1CCN(c2cc(N(C)c3ccccc3)nc(N)n2)CC1,pKb,Histamine H4 receptor [61],6.96
same,pKb,[62],6.1
CN1CCN(c2cc(-c3ccc(C#N)cc3)cc(N)n2)CC1,EC50,Histamine H4 receptor [2],2.34 µM
same,Efficacy,Histamine H4 receptor [3],56%
same,pKb,[63],5.39
N#Cc1ccc(-c2cc(N3CCN(CC4CC4)CC3)nc(N)n2)cc1,pKb,Histamine H4 receptor [61],5.53
same,pKb,[62],4.54
